In this experiment the test system is peripheral blood mononuclear cells (PBMCs). Kind of experiment: IFN-γ ELISPOT immunogenicity assay in PBMCs. Particulars: single peptides, PBMCs of healthy people, compared to control untreated with peptides; FIG. 1. It counts as cell-based, human. The protocol: To confirm the immunogenicity of the 13 peptides selected in Example 1, interferon gamma (IFNg)-enzyme linked immuno-SPOT assay (ELISPOT) was performed.
This experiment is a sensitive immunoassay that can detect cytokines secreted by a single cell. By attaching the cytokines secreted when cells are activated to a capture antibody, the secreted cytokines can be measured without being affected by proteins expressed on the cell surface or proteolytic enzymes. After attaching the cytokine to the capture antibody, the cells are removed, a detecting antibody conjugated to an enzyme that can recognize the attached capture antibody is added, and a chromogenic substrate for the enzyme is added, forming a chromogenic spot at the location of the cell secreting the cytokine, and the number of spots can be used to determine the number of cells that have responded to the stimulating antigen.
The peripheral blood mononuclear cells (PBMCs) required for the experiment were isolated from human venous blood as follows. The venous blood was diluted with 1×PBS, placed in SepMate-50 tubes, and centrifuged at 800 g for 20 minutes at room temperature. After centrifugation, the plasma and the separated PBMCs were washed, placed in each well of a 6 well tissue culture plate at a concentration of 1×10^6 cells/mL, and cultured overnight in an incubator (37° C., 5% CO2). The next day, the PBMC culture solution was recovered and centrifuged at 2000 rpm for 15 minutes at room temperature. After centrifugation, PBMCs were seeded in a 6 well cell culture plate, and peptides were added thereto and cultured to stimulate the cells.
At this time, the 13 peptides selected in Example 1 were treated alone or with various peptide combinations, and an untreated group and a ConA group were also prepared for comparative analysis. […] After attaching ELI-FOIL to the dried ELISPOT plate and stamping the membrane, the number of spots in each well was read using an ELISPOT reader. […]

Experimental findings from patent publication US20250009861A1, “ANTI-CANCER VACCINE COMPOSITION COMPRISING PEPTIDES DERIVED FROM TUMOR-ASSOCIATED ANTIGEN, AND ADJUVANT CONSISTING OF LIPOPEPTIDE AND IMMUNOACTIVE SUBSTANCE, AND USE THEREOF” (CHA VACCINE RESEARCH INSTITUTE CO., LTD, priority 2021, published 2025) are described below.

For the sequence FLWGPRALV [CHA-11], the “immunogenicity (IFN-γ ELISPOT spots)” value is “lowest immunogenicity”.
Next, “LMLGEFLKL [CHA-6, Survivin (97-104) derived peptide, HLA class I, A02; excluded]”: “lowest immunogenicity”; “TQHFVQENYLEY [CHA-10, Mage-A3 (246-260) derived peptide, HLA class II, DRB1; excluded]”: “lowest immunogenicity”.
